Assay [1] relates to capsaicin induced hypothermie. The experiment in a line: Hypothermie assay in the mouse (capsaicin induced hypothermie). It counts as in vivo. To be noted: mouse, read-out: inhibition hypothermie (n = 5); for inhibition in vivo at 0.3 mg/kg: 0.3 mg/kg body weight po; for inhibition in vivo at 1 mg/kg: 1 mg/kg body weight po; for inhibition in vivo at 0.1 mg/kg: 0.1 mg/kg body weight po. The method, then: V. Hypothermie Assay an der Maus
Male NMRI mice (weight 25-35 gram, supplier IFFA CREDO, Bruxelles, Belgium) are used in the hypothermie assay. The animals are kept under standardized conditions: light/darkness interval (6:00 to 18:00 light; 18:00 to 6:00 Uhr darkness), room temperature 19-22° C., relative humidity 35-70%, 15 times per hour change of compartment air, airflow <0.2 m/sec. The animals were fed on a standardized diet (ssniff diet, ssniff Spezialdiäten GmbH, Soest, Germany) and tap water. Water and diet were detracted during the experiment. All animals were used once in the experiment. The animals were allowed to adapt to the experimental conditions for at least 5 days.
The acute application of capsaicin (VR-1 agonist) leads to a decrease of the core body temperature in rat and mice via stimulation of heat sensors. Only compounds which act as specific VR-1-receptor antagonists can antagonize the capsaicin induced hypothermie. In contrast, morphine induced hypothermie is not antagonized by VR-1 antagonists. Thus, this experiment is suitable for the determination of compounds that act as VR1-antagonists via their effect on the core body temperature.
For the determination of the core body temperature a digital thermometer was used (Thermalert TH-5, physitemp, Clifton N.J., USA). The measuring head was inserted into the rectum.
The individual basis value is determined by measuring the body temperature twice in an interval of about half an hour. […] […] The test compound is given 10 min (i.v.) or 15 min (p.o.), respectively, before application of capsaicin. The body temperature is determined 7.5/15 and 30 min after application of capsaicin (i.v.+i.p.) or 15/30/60/90/120 min after application of capsaicin (p.o.+i.p.), respectively. In addition, another group of mice is only given the test compound or a vehicle control.
The measuring points are given as average values±S.E.M. of the absolute values. The antagonistic effect is given in percent of inhibition of capsaicin induced hypothermie.

Assay [2] deals with T1, vanilloid receptor 1 (VR1/TRPV1) of the rat species (Rattus norvegicus, UniProt O35433).
T1 construct: The spinal column is removed from decapitated rats; from tissue; host or cells: primary cells dissociated from rat dorsal root ganglia
T1 sequence (O35433 whole entry): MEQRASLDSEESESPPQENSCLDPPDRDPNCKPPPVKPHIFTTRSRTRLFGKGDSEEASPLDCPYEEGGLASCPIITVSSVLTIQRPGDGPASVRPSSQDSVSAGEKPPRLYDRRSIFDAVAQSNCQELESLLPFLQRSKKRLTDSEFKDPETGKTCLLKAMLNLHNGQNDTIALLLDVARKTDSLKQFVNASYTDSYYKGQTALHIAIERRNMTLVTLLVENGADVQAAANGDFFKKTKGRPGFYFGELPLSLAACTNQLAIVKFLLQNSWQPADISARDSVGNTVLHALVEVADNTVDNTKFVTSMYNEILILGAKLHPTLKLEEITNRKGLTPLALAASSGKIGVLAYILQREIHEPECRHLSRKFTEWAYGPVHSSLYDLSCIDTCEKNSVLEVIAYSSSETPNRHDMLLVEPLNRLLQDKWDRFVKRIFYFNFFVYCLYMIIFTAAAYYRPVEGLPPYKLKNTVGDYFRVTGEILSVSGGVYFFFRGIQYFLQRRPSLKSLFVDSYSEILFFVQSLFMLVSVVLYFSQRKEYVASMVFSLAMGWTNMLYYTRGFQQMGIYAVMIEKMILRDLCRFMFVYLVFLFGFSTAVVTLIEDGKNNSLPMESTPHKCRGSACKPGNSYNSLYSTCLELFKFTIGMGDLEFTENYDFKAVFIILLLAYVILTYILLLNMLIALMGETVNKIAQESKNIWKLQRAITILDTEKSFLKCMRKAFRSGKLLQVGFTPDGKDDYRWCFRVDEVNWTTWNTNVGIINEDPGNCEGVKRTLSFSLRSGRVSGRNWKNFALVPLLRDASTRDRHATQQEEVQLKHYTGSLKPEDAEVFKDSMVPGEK
Kind of assay: FLIPR Ca2+ influx assay on rat dorsal root ganglia cells (pharmacological method I). To be noted: table 4, capsaicin. The assay is classed as cell-based. The method, boiled down:
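Primary rat dorsal root ganglion cells loaded with 2 μM Fluo-4, Ca2+ influx read on FLIPR as peak fluorescence. Triplicates, at least 3 independent experiments.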

Another assay has as its target VR1/TRPV1 receptor (Homo sapiens, UniProt Q8NER1). Kind of assay: IC50 (human) after pH stimulus. It counts as cell-based. To be noted: for IC50: table 4; for inhibition at 1 µM / inhibition in percent, IC50 (human) after pH stimulus: ne = no effect, @ 1 μM; for inhibition at 1 µM / inhibition at 10 µM: read-out: inhibition in percent, IC50 (human) after pH stimulus.

The target of the next assay is T2, vanilloid receptor (VR1) (Homo sapiens, UniProt Q8NER1).
T2 construct: expressed in transfected cells; host or cells: CHO K1 cells (ECACC), stably transfected
T2 sequence (Q8NER1 whole entry): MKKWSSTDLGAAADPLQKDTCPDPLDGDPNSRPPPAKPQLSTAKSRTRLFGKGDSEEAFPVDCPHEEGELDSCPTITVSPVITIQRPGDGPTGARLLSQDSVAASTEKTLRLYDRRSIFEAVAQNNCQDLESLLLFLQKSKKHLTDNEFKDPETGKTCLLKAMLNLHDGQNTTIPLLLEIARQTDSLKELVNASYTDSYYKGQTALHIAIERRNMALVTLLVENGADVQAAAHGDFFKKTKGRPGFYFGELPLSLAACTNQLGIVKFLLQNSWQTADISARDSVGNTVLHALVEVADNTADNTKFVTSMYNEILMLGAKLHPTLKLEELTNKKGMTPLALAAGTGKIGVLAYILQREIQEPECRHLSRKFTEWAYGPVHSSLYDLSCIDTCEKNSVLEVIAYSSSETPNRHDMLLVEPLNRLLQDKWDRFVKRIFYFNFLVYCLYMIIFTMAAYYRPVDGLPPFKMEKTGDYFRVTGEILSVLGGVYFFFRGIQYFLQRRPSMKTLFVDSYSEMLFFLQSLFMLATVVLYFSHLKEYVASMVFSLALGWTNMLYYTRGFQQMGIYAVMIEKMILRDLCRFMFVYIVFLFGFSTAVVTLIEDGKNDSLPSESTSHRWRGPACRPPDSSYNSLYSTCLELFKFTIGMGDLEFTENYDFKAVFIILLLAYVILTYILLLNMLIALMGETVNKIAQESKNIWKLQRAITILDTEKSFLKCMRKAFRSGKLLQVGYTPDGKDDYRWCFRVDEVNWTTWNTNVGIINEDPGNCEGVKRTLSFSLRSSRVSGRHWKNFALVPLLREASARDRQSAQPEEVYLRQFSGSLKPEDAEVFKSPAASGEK
The experiment in a line: FLIPR Ca2+ influx assay on CHO K1 cells transfected with the VR1 gene (pharmacological method II). The assay is classed as cell-based. To be noted: table 4; capsaicin; read-out: Ki (human) Cap.

Read-outs that look alike come from different tables or passages of the source.

What is called Ki is a dissociation constant, usually derived from enzyme kinetics or from competition with a known ligand. The term IC50 denotes the concentration at which inhibition is half-maximal. High values mean weaker potency in that assay, low ones greater potency in that assay. As usually defined, the inhibition is the relative decrease from the control value, in per cent.

Chain of VR1/TRPV1 receptor (Q8NER1 whole entry): as above

Turning to `CC(C(=O)NCc1ccc(C(F)(F)F)nc1OCc1ccccc1)c1ccc(NS(C)(=O)=O)c(F)c1` (stereo not drawn) [Compound 106], in assay [1], the inhibition in vivo at 0.3 mg/kg was determined as 21% and the inhibition in vivo at 1 mg/kg stood at 22%. Further, the inhibition in vivo at 10 mg/kg in assay [1] (10 mg/kg body weight po) was 84%.

Regarding `CC(C(=O)NCc1ccc(C(F)(F)F)nc1N1CCC(Nc2ccccc2)CC1)c1ccc(NS(C)(=O)=O)c(F)c1` (stereo not drawn) [Compound 290], in assay [1], the inhibition in vivo at 0.3 mg/kg stood at 78% and the inhibition in vivo at 1 mg/kg came to 68%.

`CC(C(=O)NCc1ccc(C(F)(F)F)nc1N1CCCCCC1)c1ccc(NS(C)(=O)=O)c(F)c1` (stereo not drawn) [Example 81, N-(2-azepan-1-yl-6-trifluoromethyl-pyridin-3-ylmethyl)-2-(3-fluoro-4-methylsulfonamido-phenyl)-propionamide]: in assay [2] (read-out: Ki (rat) Cap.), the Ki came to 2.4 nM. Also, the inhibition in vivo at 0.3 mg/kg in assay [1] is 21%.

For `CC(C(=O)NCc1ccc(C(F)(F)F)nc1-n1ccnc1)c1ccc(NS(C)(=O)=O)c(F)c1` (stereo not drawn) [Example 87, 2-(3-fluoro-4-methylsulfonamido-phenyl)-N-((6-(trifluoromethyl)-2-(1H-imidazol-1-yl)pyridin-3-yl)methyl)-propionamide], the inhibition constant Ki in assay [2] (read-out: Ki (rat) Cap.) was determined as 143 nM. Further, the half-maximal inhibitory concentration (IC50) against VR1/TRPV1 receptor was 2570 nM. In addition, the inhibition in vivo at 0.3 mg/kg in assay [1] came to 0%.

Turning to `CCCCCCOc1nc(C(F)(F)F)ccc1CNC(=O)[C@H](C)c1ccc(NS(C)(=O)=O)c(F)c1` [Example 94, (R)-2-(3-fluoro-4-methylsulfonamido-phenyl)-N-(2-hexyloxy-6-trifluoromethyl-pyridin-3-ylmethyl)-propionamide], the inhibition in vivo at 0.3 mg/kg in assay [1] is 0%.

As to `CC(C)COc1cc(C(F)(F)F)ccc1CNC(=O)[C@H](C)c1ccc(NS(C)(=O)=O)c(F)c1` [Example 99, (R)-2-(3-fluoro-4-methylsulfonamido-phenyl)-N-(2-isobutoxy-4-trifluoromethyl-benzyl)-propionamide], the inhibition constant Ki on vanilloid receptor (VR1) was 5.8 nM. The compound further displayed a half-maximal inhibitory concentration (IC50) at VR1/TRPV1 receptor of 419 nM. In addition, the inhibition in vivo at 0.3 mg/kg in assay [1] is 1%.

Take `CC(C(=O)NCc1ccc(C(F)(F)F)nc1OCc1ccccc1)c1ccc(NS(C)(=O)=O)c(F)c1` (stereo not drawn) [Example 106, N-(2-benzyloxy-6-trifluoromethyl-pyridin-3-ylmethyl)-2-(3-fluoro-4-methylsulfonamido-phenyl)-propionamide]: at vanilloid receptor (VR1), the inhibition constant (Ki) came out at 0.5 nM. For the same compound, the concentration for half-maximal inhibition (IC50) on VR1/TRPV1 receptor was 18.6 nM. Also, the inhibition in vivo at 0.1 mg/kg in assay [1] stood at 24%.

Consider `CC(C(=O)NCc1ccc(C(F)(F)F)nc1N1CCC(c2ccccc2)CC1)c1ccc(NS(C)(=O)=O)c(F)c1` (stereo not drawn) [Example 137], for which, in assay [2] (read-out: Ki (rat) Cap.), the Ki amounted to 1.9 nM. The inhibition in vivo at 0.3 mg/kg in assay [1] amounted to 9%.

Take `CC(C)CCCc1nc(C(F)(F)F)ccc1CNC(=O)C(C)c1ccc(NS(C)(=O)=O)c(F)c1` (stereo not drawn) [Example 268, 2-(3-fluoro-4-methylsulfonamido-phenyl)-N-[2-(4-methyl-pentyl)-6-trifluoromethyl-pyridin-3-ylmethyl]-propionamide]: the Ki in assay [2] (read-out: Ki (rat) Cap.) is 0.8 nM; on vanilloid receptor (VR1), 0.9 nM. On VR1/TRPV1 receptor, the midpoint of inhibition, the IC50, lay at 17 nM.

With `CC(C(=O)NCc1ccc(C(F)(F)F)nc1OCC1CCCCC1)c1ccc(NS(C)(=O)=O)c(F)c1` (stereo not drawn) [Example 270, N-(2-cyclohexylmethoxy-6-trifluoromethyl-pyridin-3-ylmethyl)-2-(3-fluoro-4-methylsulfonamido-phenyl)-propionamide], the Ki is 0.5 nM in assay [2] (Ki (rat) Cap.) and 0.7 nM at vanilloid receptor (VR1). Moreover, at VR1/TRPV1 receptor, the 50% inhibitory concentration (IC50) was determined as 19.7 nM.

`CC1CCC(COc2nc(C(F)(F)F)ccc2CNC(=O)C(C)c2ccc(NS(C)(=O)=O)c(F)c2)CC1` (stereo not drawn) [Example 271, 2-(3-fluoro-4-methylsulfonamido-phenyl)-N-[2-(4-methyl-cyclohexylmethoxy)-6-trifluoromethyl-pyridin-3-ylmethyl]-propionamide]: the Ki was determined as 1.1 nM in assay [2] (Ki (rat) Cap.) and 1 nM on vanilloid receptor (VR1). The same compound showed an IC50 against VR1/TRPV1 receptor of 44.4 nM.

As to `CC(C(=O)NCc1ccc(C(F)(F)F)nc1OCC1CC1(C)C)c1ccc(NS(C)(=O)=O)c(F)c1` (stereo not drawn) [Example 279, N-[2-(2,2-dimethyl-cyclopropylmethoxy)-6-trifluoromethyl-pyridin-3-ylmethyl]-2-(3-fluoro-4-methylsulfonamido-phenyl)-propionamide], the Ki in assay [2] (Ki (rat) Cap.) is 1.7 nM; at vanilloid receptor (VR1) it was 1.1 nM. Besides, on VR1/TRPV1 receptor, the IC50 amounted to 161 nM.

For `CC1CCCN(c2nc(C(F)(F)F)ccc2CNC(=O)C(C)c2ccc(NS(C)(=O)=O)c(F)c2)C1` (stereo not drawn) [Example 282, 2-(3-fluoro-4-methylsulfonamido-phenyl)-N-(3-methyl-6′-trifluoromethyl-3,4,5,6-tetrahydro-2H-[1,2′]bipyridinyl-3′-ylmethyl)-propionamide], the values for the inhibition constant (Ki) (in assay [2] (read-out: Ki (rat) Cap.); on vanilloid receptor (VR1)) were 1.2 nM and 0.8 nM, respectively. In addition, the inhibition at 1 µM on VR1/TRPV1 receptor is 57%. The inhibition at 10 µM on VR1/TRPV1 receptor was 62%.

On to `CC(C(=O)NCc1ccc(C(F)(F)F)nc1N1CCCCC1C)c1ccc(NS(C)(=O)=O)c(F)c1` (stereo not drawn) [Example 283, 2-(3-fluoro-4-methylsulfonamido-phenyl)-N-(2-methyl-6′-trifluoromethyl-3,4,5,6-tetrahydro-2H-[1,2′]bipyridinyl-3′-ylmethyl)-propionamide], for which the Ki in assay [2] (read-out: Ki (rat) Cap.) is 4.5 nM. Further, the inhibition constant Ki at vanilloid receptor (VR1) turned out to be 2.9 nM. In addition, at VR1/TRPV1 receptor, the inhibition at 1 µM amounted to 51% and the inhibition at 10 µM was 51%.

Take `CC1CCN(c2nc(C(F)(F)F)ccc2CCNC(=O)C(C)c2ccc(NS(C)(=O)=O)c(F)c2)CC1` (stereo not drawn) [Example 284, 2-(3-fluoro-4-methylsulfonamido-phenyl)-N-[2-(4-methyl-6′-trifluoromethyl-3,4,5,6-tetrahydro-2H-[1,2′]bipyridinyl-3′-yl)-ethyl]-propionamide]: the inhibitory constant (Ki) was 48 nM in assay [2] (read-out: Ki (rat) Cap.) and 54.9 nM on vanilloid receptor (VR1). Further, the “inhibition in percent, IC50 (human) after pH stimulus” value (from here on “inhibition in percent, IC50 (human)”) on VR1/TRPV1 receptor is listed as “ne @ 1 μM”.

With `CC(C(=O)NCc1ccc(C(F)(F)F)nc1N1CCC(C#N)(c2ccccc2)CC1)c1ccc(NS(C)(=O)=O)c(F)c1` (stereo not drawn) [Example 285, N-(4-cyano-4-phenyl-6′-trifluoromethyl-3,4,5,6-tetrahydro-2H-[1,2′]bipyridinyl-3′-ylmethyl)-2-(3-fluoro-4-methylsulfonamido-phenyl)-propionamide], the Ki in assay [2] (read-out: Ki (rat) Cap.) worked out at 4.5 nM; on vanilloid receptor (VR1) it was 3.5 nM. Also, the concentration for half-maximal inhibition (IC50) against VR1/TRPV1 receptor is 377 nM.

`CCS(=O)(=O)Nc1ccc(C(C)C(=O)NCc2ccc(C(F)(F)F)nc2N2CCC(C)CC2)cc1F` (stereo not drawn) [Example 287, 2-(4-ethanesulfonylamino-3-fluoro-phenyl)-N-(4-methyl-6′-trifluoromethyl-3,4,5,6-tetrahydro-2H-[1,2′]bipyridinyl-3′-ylmethyl)-propionamide]: the Ki came to 3.5 nM in assay [2] (read-out: Ki (rat) Cap.) and 4.4 nM on vanilloid receptor (VR1). The compound further had a half-inhibitory concentration (IC50) at VR1/TRPV1 receptor of 189 nM.

For `CC1CCN(c2nc(C(F)(F)F)ccc2CNC(=O)C(C)c2ccc(NS(=O)(=O)N(C)C)c(F)c2)CC1` (stereo not drawn) [Example 288, 2-(4-dimethylaminsulfonylamino-3-fluoro-phenyl)-N-(4-methyl-6′-trifluoromethyl-3,4,5,6-tetrahydro-2H-[1,2′]bipyridinyl-3′-ylmethyl)-propionamide], the Ki in assay [2] (read-out: Ki (rat) Cap.) stood at 41 nM; on vanilloid receptor (VR1), 42 nM. Besides, the “inhibition in percent, IC50 (human)” value against VR1/TRPV1 receptor is given as “ne @ 1 μM”.

For `COc1cc(C(C)C(=O)NCc2ccc(C(F)(F)F)nc2N2CCC(C)CC2)ccc1NS(C)(=O)=O` (stereo not drawn) [Example 289, 2-(4-methylsulfonamido-3-methoxy-phenyl)-N-(4-methyl-6′-trifluoromethyl-3,4,5,6-tetrahydro-2H-[1,2′]bipyridinyl-3′-ylmethyl)-propionamide], the Ki in assay [2] (read-out: Ki (rat) Cap.) came to 3.3 nM; on vanilloid receptor (VR1), 2.5 nM. Besides, at VR1/TRPV1 receptor, the “inhibition in percent, IC50 (human)” value is given as “ne @ 1 μM”.

For `CC(C(=O)NCc1ccc(C(F)(F)F)nc1N1CCC(Nc2ccccc2)CC1)c1ccc(NS(C)(=O)=O)c(F)c1` (stereo not drawn) [Example 290, 2-(3-fluoro-4-methylsulfonamido-phenyl)-N-(4-phenylamino-6′-trifluoromethyl-3,4,5,6-tetrahydro-2H-[1,2′]bipyridinyl-3′-ylmethyl)-propionamide], the inhibition constant Ki on vanilloid receptor (VR1) amounted to 4.4 nM. The half-inhibitory concentration (IC50) against VR1/TRPV1 receptor turned out to be 480 nM. The inhibition in vivo at 0.1 mg/kg in assay [1] came to 24%.

(Values after patent US8710233B2 (Gruenenthal GmbH, priority 2005, dated 2014).)
